Here are results for 18 compounds from PMC5748275, “Novel Aryl Substituted Pyrazoles as Small Molecule Inhibitors of Cytochrome P450 CYP121A1: Synthesis and Antimycobacterial Evaluation” (Journal of Medicinal Chemistry, 2017).

The structures appear in SMILES notation.

T1 sequence (P9WPP7 whole entry): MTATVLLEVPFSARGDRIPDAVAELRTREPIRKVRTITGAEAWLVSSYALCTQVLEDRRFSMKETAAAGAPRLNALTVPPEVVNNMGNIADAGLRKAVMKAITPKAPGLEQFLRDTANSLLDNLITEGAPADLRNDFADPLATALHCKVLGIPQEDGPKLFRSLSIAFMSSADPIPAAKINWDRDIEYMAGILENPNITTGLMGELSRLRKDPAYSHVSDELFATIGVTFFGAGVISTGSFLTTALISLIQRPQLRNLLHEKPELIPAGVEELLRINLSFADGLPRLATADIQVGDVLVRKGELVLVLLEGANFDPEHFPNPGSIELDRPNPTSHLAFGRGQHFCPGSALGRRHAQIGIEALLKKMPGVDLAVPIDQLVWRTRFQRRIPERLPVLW

The test addresses T1, CYP121A1 (Mycobacterium tuberculosis, UniProt P9WPP7).
T1 construct: made in house
The format is binding. The note with it: heme Soret peak position, ligand-free to apparent saturation.
`c1ccc(-c2nn(-c3ccccc3)cc2Cn2ccnc2)cc1` [7a, (1,3-Diphenyl)-4-((1,3-imidazol-1-yl)methyl)-1H-pyrazole]: the Soret peak shift was 416–423.5 nm.
Then `Fc1ccc(-c2nn(-c3ccccc3)cc2Cn2ccnc2)cc1` [7b, 4-((1H-Imidazol-1-yl)methyl)-3-(4-fluorophenyl)-1-phenyl-1H-pyrazole], with 416–423.5 nm.
As for `Clc1ccc(-c2nn(-c3ccccc3)cc2Cn2ccnc2)cc1` [7c, 4-((1H-Imidazol-1-yl)methyl)-3-(4-chlorophenyl)-1-phenyl-1H-pyrazole], the Soret peak shift was 416–422 nm.
For `Cc1ccc(-c2nn(-c3ccccc3)cc2Cn2ccnc2)cc1` [7d, 4-((1H-Imidazol-1-yl)methyl)-1-phenyl-3-(p-tolyl)-1H-pyrazole], the Soret peak shift is on record as 416–421.5 nm.
With `COc1ccc(-c2nn(-c3ccccc3)cc2Cn2ccnc2)cc1` [7e, 4-((1H-Imidazol-1-yl)methyl)-3-(4-methoxyphenyl)-1-phenyl-1H-pyrazole] the figure was 416–421 nm; with `Brc1ccc(-c2nn(-c3ccccc3)cc2Cn2ccnc2)cc1` [7f, 4-((1H-Imidazole-1-yl)methyl)-3-(4-bromophenyl)-1-phenyl-1H-pyrazole], 416–420 nm; with `Ic1ccc(-c2nn(-c3ccccc3)cc2Cn2ccnc2)cc1` [7g, 4-((1H-Imidazole-1-yl)methyl)-3-(4-iodophenyl)-1-phenyl-1H-pyrazole], 416–422 nm.
Take `N#Cc1ccc(-c2nn(-c3ccccc3)cc2Cn2ccnc2)cc1` [7h, 4-(4-((1H-Imidazol-1-yl)methyl)-1-phenyl-1H-pyrazol-3-yl)benzonitrile]: the Soret peak shift is given as 416–418 nm.
Regarding `c1ccc(-c2nn(-c3ccccc3)cc2Cn2cncn2)cc1` [8a, 1-((1,3-Diphenyl-1H-pyrazol-4-yl)methyl)-1H-[1,2,4]triazole], the Soret peak shift is 416–422 nm.
Turning to `Fc1ccc(-c2nn(-c3ccccc3)cc2Cn2cncn2)cc1` [8b, 1-((3-(4-Fluorophenyl)-1-phenyl-1H-pyrazole-4-yl)methyl)-1H-1,2,4-triazole], the Soret peak shift is given as 416–423 nm.
For the compound `Clc1ccc(-c2nn(-c3ccccc3)cc2Cn2cncn2)cc1` [8c, 1-((3-(4-Chlorophenyl)-1-phenyl-1H-pyrazole-4-yl)methyl)-1H-1,2,4-triazole], the Soret peak shift is 416–421 nm.
On to `Cc1ccc(-c2nn(-c3ccccc3)cc2Cn2cncn2)cc1` [8d, 1((1-Phenyl-3-(p-tolyl)-1H-pyrazol-4-yl)methyl)-1H-1,2,4-triazole], for which the Soret peak shift is listed as 416–418 nm.
For `COc1ccc(-c2nn(-c3ccccc3)cc2Cn2cncn2)cc1` [8e, 1-((3-(4-Methoxyphenyl)-1-phenyl-1H-pyrazol-4-yl)methyl)-1H-1,2,4-triazole], the Soret peak shift is listed as 416–420 nm.
Then `Brc1ccc(-c2nn(-c3ccccc3)cc2Cn2cncn2)cc1` [8f, 1-((3-(4-Bromophenyl)-1-phenyl-1H-pyrazol-4-yl)methyl)-1H-1,2,4-triazole], with 416–417.5 nm; and `Ic1ccc(-c2nn(-c3ccccc3)cc2Cn2cncn2)cc1` [8g, 1-((3-(4-Iodophenyl)-1-phenyl-1H-pyrazol-4-yl)methyl)-1H-1,2,4-triazole], with “no binding”.
For `N#Cc1ccc(-c2nn(-c3ccccc3)cc2Cn2cncn2)cc1` [8h], the Soret peak shift entry was “no binding”.
Turning to `O=C(NCCn1ccnc1)c1cn(-c2ccccc2)nc1-c1ccc(F)cc1` [13b, N-(2-(1H-Imidazol-1-yl)ethyl)-3-(4-fluorophenyl)-1-phenyl-1H-pyrazole-4-carboxamide], the Soret peak shift result was “no binding”.
With `O=C(NCCn1ccnc1)c1cn(-c2ccccc2)nc1-c1ccc(Cl)cc1` [13c, N-(2-(1H-Imidazol-1-yl)ethyl)-3-(4-chlorophenyl)-1-phenyl-1H-pyrazole-4-carboxamide] the entry was “no binding”.
